Here are results for 43 molecules from patent publication US20080287445A1, “Prokineticin 2 receptor antagonists” (priority 2005, published 2008).

In the assay the target is T1, GPR73 (prokineticin 1 receptor) (Homo sapiens, UniProt Q8TCW9).
T1 construct: expressed in transfected cells; host or cells: HEK 293
The assay can be described thus: PK1 functional assay: Ca2+ mobilization screening for PK1 antagonists on the FLIPR. To be noted: HEK 293 GPR73 cells, multiple values = multiple testing; for Ca^2+ Mobilization % Inh @ 10 μM: 10 μM compound; for inhibition at 10 µM: HEK293, 10 μM compound, read-out: Ca^2+ Mobilization % Inh @ 10 μM; for IC50: PK1 ligand preparation at its EC50, read-out: Ca^2+ Mobilization IC50. The class given is cell-based. Summed up: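 HEK293 cells expressing human GPR73 were loaded with Calcium Plus dye, then on FLIPR given compound for 4 min 15 s before PK1 ligand at its predetermined EC50. Baseline-subtracted fluorescence over 1 min 45 s gave percent inhibition versus maximal signal; IC50 fitted.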

One may read the IC50 as the concentration needed to halve the response being measured.

Where “and” joins values, the source holds several entries; their conditions need not be identical. Identical values can stand only once.

T1 sequence (Q8TCW9 whole entry, species assumed): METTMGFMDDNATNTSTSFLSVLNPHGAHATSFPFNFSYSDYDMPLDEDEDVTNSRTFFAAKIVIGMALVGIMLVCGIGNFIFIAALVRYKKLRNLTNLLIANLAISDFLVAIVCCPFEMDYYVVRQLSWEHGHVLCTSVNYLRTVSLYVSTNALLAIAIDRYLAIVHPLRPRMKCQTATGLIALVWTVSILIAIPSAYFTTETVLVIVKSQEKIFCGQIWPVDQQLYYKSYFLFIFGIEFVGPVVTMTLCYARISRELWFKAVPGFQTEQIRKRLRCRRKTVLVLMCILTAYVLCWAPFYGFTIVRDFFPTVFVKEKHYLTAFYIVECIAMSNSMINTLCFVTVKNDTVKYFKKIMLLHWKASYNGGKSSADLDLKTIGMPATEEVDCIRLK

For the molecule `COc1ccc(Cn2c(=O)nc(NCc3c(C)cc(C)nc3N)n(Cc3cccc4[nH]ccc34)c2=O)cc1` [Cpd 155, 6-[(2-Amino-4,6-dimethyl-pyridin-3-ylmethyl)-amino]-1-(1H-indol-4-ylmethyl)-3-(4-methoxy-benzyl)-1H-[1,3,5]triazine-2,4-dione], the “Ca^2+ Mobilization % Inh @ 10 μM” value was found to be 100%; the inhibition at 10 µM came to 98%; the half-maximal inhibitory concentration (IC50) was 2 nM and 7 nM.
Turning to `Nc1cccc(CNc2nc(=O)n(Cc3ccc(F)cc3)c(=O)n2Cc2ccc(OC(F)F)cc2)n1` [Cpd 156], the inhibition at 10 µM came out at 70% and the IC50 stood at 3220 nM.
In the case of `COc1ccc(Cn2c(=O)nc(NCc3c(C)cc(C)nc3N)n(Cc3ccc4c(c3)CCO4)c2=O)cc1` [Cpd 157], the “Ca^2+ Mobilization % Inh @ 10 μM” value is reported as 96%; the inhibition at 10 µM amounted to 92%; the IC50 was 4 nM and 11 nM.
Take `Cc1cc(C)c(CNc2nc(=O)n(Cc3ccc(-n4cccn4)cc3)c(=O)n2Cc2ccc(OC(F)F)cc2)cn1` [Cpd 158]: the inhibition at 10 µM came to 62% and the IC50 was 3840 nM.
For `Cc1cc(C)c(CNc2nc(=O)n(Cc3ccc(I)cc3)c(=O)n2Cc2ccc(OC(F)F)cc2)cn1` [Cpd 159], in that order: 31% and over 10000 nM.
On the same counts, the results for `Cc1cc(C)c(CNc2nc(=O)n(Cc3ccc(F)cc3)c(=O)n2Cc2ccc(OC(F)F)cc2)cn1` [Cpd 160, 1-(4-Difluoromethoxy-benzyl)-6-[(4,6-dimethyl-pyridin-3-ylmethyl)-amino]-3-(4-fluoro-benzyl)-1H-[1,3,5]triazine-2,4-dione] are 71% and 628 nM.
For `Cc1ccc(Cn2c(=O)nc(NCc3cnc(C)cc3C)n(Cc3ccc(OC(F)F)cc3)c2=O)cc1` [Cpd 161], in that order: 53% and 4780 nM.
Turning to `Cc1cc(C)c(CNc2nc(=O)n(Cc3ccc(C(F)(F)F)cc3)c(=O)n2Cc2ccc(OC(F)F)cc2)cn1` [Cpd 162], the inhibition at 10 µM is 31% and the half-inhibitory concentration (IC50) was over 10000 nM.
Consider `Cc1cc(C)c(CNc2nc(=O)n(Cc3ccc(OC(F)F)cc3)c(=O)n2Cc2ccc(OC(F)F)cc2)cn1` [Cpd 163], for which the inhibition at 10 µM came to 38% and the half-inhibitory concentration (IC50) is over 10000 nM.
For `Cc1cc(C)c(CNc2nc(=O)n(Cc3ccc(C#N)cc3)c(=O)n2Cc2ccc(OC(F)F)cc2)cn1` [Cpd 164], in that order: 64% and 2010 nM.
Regarding `COC(=O)c1ccc(Cn2c(=O)nc(NCc3cnc(C)cc3C)n(Cc3ccc(OC(F)F)cc3)c2=O)cc1` [Cpd 165], the inhibition at 10 µM is 52% and the concentration for half-maximal inhibition (IC50) stood at 6150 nM.
For `Cc1cc(C)c(CNc2nc(=O)n(CCOc3ccccc3)c(=O)n2Cc2ccc(OC(F)F)cc2)cn1` [Cpd 166], in that order: 73% and 1700 nM.
With `Cc1cc(C)c(CNc2nc(=O)n(CCOc3ccc(F)cc3)c(=O)n2Cc2ccc(OC(F)F)cc2)cn1` [Cpd 167], the inhibition at 10 µM was 65% and the 50% inhibitory concentration (IC50) came out at 2620 nM.
For `Cc1cc(C)c(CNc2nc(=O)n(Cc3ccc(-c4csnn4)cc3)c(=O)n2Cc2ccc(OC(F)F)cc2)cn1` [Cpd 168], in that order: 68% and 1520 nM.
In the case of `COc1ccc(Cn2c(CCc3cccnc3)cc(=O)n(Cc3ccc(OC)cc3)c2=O)cc1` [Cpd 169], the “Ca^2+ Mobilization % Inh @ 10 μM” value is 86%; the inhibition at 10 µM was found to be 78%; the IC50 was 226 nM and 973 nM.
For the molecule `COc1ccc(Cn2c(=O)nc(NCc3cccnc3N)n(Cc3ccc4cc[nH]c4c3)c2=O)cc1` [Cpd 170], the inhibition at 10 µM amounted to 96% and the IC50 stood at 32 nM.
On the same counts, the results for `COc1ccc(Cn2c(=O)nc(NCc3cccnc3N)n(Cc3cccc4cc[nH]c34)c2=O)cc1` [Cpd 171] are 46% and over 10000 nM.
For `COc1ccc(Cn2c(=O)nc(NCc3cnc(C)cc3C)n(Cc3cccc4cc[nH]c34)c2=O)cc1` [Cpd 172], in that order: 88% and 515 nM.
In the case of `CSc1ccc(Cn2c(=O)nc(NCc3c(C)cc(C)nc3N)n(Cc3ccc(OC(F)F)cc3)c2=O)cc1` [Cpd 173], the inhibition at 10 µM is 97% and the IC50 came to 207 nM.
On the same counts, the results for `Cc1cc(C)c(CNc2nc(=O)n(Cc3ccc4sccc4c3)c(=O)n2Cc2ccc(OC(F)F)cc2)c(N)n1` [Cpd 174] are 87% and 290 nM.
As for `Cc1cc(C)c(CNc2nc(=O)n(Cc3ccc4occc4c3)c(=O)n2Cc2ccc(OC(F)F)cc2)c(N)n1` [Cpd 175], the “Ca^2+ Mobilization % Inh @ 10 μM” value came to 99%; the inhibition at 10 µM turned out to be 96%; the IC50 is 57 nM and 93 nM.
For `Cc1cc(C)c(CNc2nc(=O)n(Cc3ccc4c(c3)CCO4)c(=O)n2Cc2ccc(OC(F)F)cc2)c(N)n1` [Cpd 176], the “Ca^2+ Mobilization % Inh @ 10 μM” value worked out at 98%; the inhibition at 10 µM turned out to be 96%; the IC50 was 23 nM and 48 nM and 130 nM.
`CSc1ccc(Cn2c(=O)nc(NCc3cnc(C)cc3C)n(Cc3ccc(OC(F)F)cc3)c2=O)cc1` [Cpd 177]: the inhibition at 10 µM was found to be 79% and the IC50 was determined as 640 nM.
Consider `Cc1cc(C)c(CNc2nc(=O)n(Cc3ccc4occc4c3)c(=O)n2Cc2ccc(OC(F)F)cc2)cn1` [Cpd 178], for which the inhibition at 10 µM was 46% and the IC50 was 8650 nM.
For `Cc1cc(C)c(CNc2nc(=O)n(Cc3ccc4c(c3)CCO4)c(=O)n2Cc2ccc(OC(F)F)cc2)cn1` [Cpd 179], in that order: 61% and 4530 nM.
On the same counts, the results for `Cc1cc(C)c(CNc2nc(=O)n(Cc3ccccc3C#N)c(=O)n2Cc2ccc(OC(F)F)cc2)cn1` [Cpd 180] are 37% and over 10000 nM.
As for `Cc1cc(C)c(CNc2nc(=O)n(Cc3ccc(O)cc3)c(=O)n2Cc2ccc(OC(F)F)cc2)cn1` [Cpd 181], the inhibition at 10 µM was determined as 61% and the IC50 is 3730 nM.
Regarding `CC(=O)Oc1ccc(Cn2c(=O)nc(NCc3cnc(C)cc3C)n(Cc3ccc(OC(F)F)cc3)c2=O)cc1` [Cpd 182], the inhibition at 10 µM was determined as 55% and the IC50 is 8510 nM.
Turning to `COc1ccc(Cn2c(CCc3ccncc3)cc(=O)n(Cc3ccc(OC)cc3)c2=O)cc1` [Cpd 183], the inhibition at 10 µM turned out to be 68% and the IC50 stood at 2460 nM.
For `COc1ccc(Cn2c(C=Cc3ccncc3)cc(=O)n(Cc3ccc(OC)cc3)c2=O)cc1` [Cpd 184, 1,3-Bis-(4-methoxy-benzyl)-6-(2-pyridin-4-yl-vinyl)-1H-pyrimidine-2,4-dione], in that order: 65% and 2690 nM.
For `Cc1cc(C)c(CNc2nc(=O)n(Cc3ccc4c(c3)CCO4)c(=O)n2Cc2ccc3c(c2)CCO3)c(N)n1` [Cpd 185, 6-[(2-Amino-4,6-dimethyl-pyridin-3-ylmethyl)-amino]-1,3-bis-(2,3-dihydro-benzofuran-5-ylmethyl)-1H-[1,3,5]triazine-2,4-dione], the “Ca^2+ Mobilization % Inh @ 10 μM” value is 94% and 98%; the inhibition at 10 µM worked out at 92%; the IC50 is 15 nM and 80 nM and 118 nM.
In the case of `Cc1cc(C)c(CNc2nc(=O)n(Cc3ccc4occc4c3)c(=O)n2Cc2ccc3c(c2)CCO3)c(N)n1` [Cpd 186], the “Ca^2+ Mobilization % Inh @ 10 μM” value stood at 100%; the inhibition at 10 µM was found to be 99%; the IC50 was 74 nM and 97 nM.
For `COc1ccc(Cn2c(CCc3ccccn3)cc(=O)n(Cc3ccc(OC)cc3)c2=O)cc1` [Cpd 187], the inhibition at 10 µM stood at 41% and the IC50 is over 10000 nM.
For `COc1ccc(Cn2c(NCc3cccn4ccnc34)nc(=O)n(Cc3ccc(OC)cc3)c2=O)cc1` [Cpd 188, 6-[(Imidazo[1,2-a]pyridin-8-ylmethyl)-amino]-1,3-bis-(4-methoxy-benzyl)-1H-[1,3,5]triazine-2,4-dione], the inhibition at 10 µM is 66% and the IC50 stood at 579 nM.
In the case of `COc1ccc(Cn2c(CCc3cccnc3C(N)=O)cc(=O)n(Cc3ccc(OC)cc3)c2=O)cc1` [Cpd 189], the inhibition at 10 µM is 38% and the IC50 was over 10000 nM.
In the case of `COc1ccc(Cn2c(OCc3cccnc3N)cc(=O)n(Cc3ccc(OC)cc3)c2=O)cc1` [Cpd 190], the inhibition at 10 µM was 79% and the IC50 stood at 502 nM.
On to `Cc1cc(C)c(CNc2nc(=O)n(Cc3ccc(CO)cc3)c(=O)n2Cc2ccc(OC(F)F)cc2)cn1` [Cpd 191], for which the inhibition at 10 µM worked out at 50% and the IC50 amounted to 8370 nM.
For the molecule `Cc1cc(C)c(CNc2nc(=O)n(Cc3ccc4c(c3)nnn4C)c(=O)n2Cc2ccc(OC(F)F)cc2)cn1` [Cpd 192], the “Ca^2+ Mobilization % Inh @ 10 μM” value turned out to be 82%; the inhibition at 10 µM is 80%; the IC50 is 146 nM and 1060 nM.
`COc1ccc(Cn2c(=O)nc(NCc3cnc(C)cc3C)n(Cc3ccc(OC(F)F)cc3)c2=O)cc1` [Cpd 193]: the “Ca^2+ Mobilization % Inh @ 10 μM” value was 39% and the IC50 is over 10000 nM.
With `Cc1cc(C)c(CNc2nc(=O)n(Cc3ccc(C(N)=O)cc3)c(=O)n2Cc2ccc(OC(F)F)cc2)cn1` [Cpd 194], the inhibition at 10 µM was found to be 49% and the IC50 is 6220 nM.
As for `Cc1cc(C)c(CNc2nc(=O)n(Cc3ccc4snnc4c3)c(=O)n2Cc2ccc(OC(F)F)cc2)cn1` [Cpd 196], the inhibition at 10 µM was determined as 84% and the 50% inhibitory concentration (IC50) came out at 451 nM.
For `COCCCCCn1c(=O)nc(NCc2cnc(C)cc2C)n(Cc2ccc(OC)cc2)c1=O` [Cpd 197], in that order: 54% and 2840 nM.
`COCCCCCn1c(=O)nc(NCc2cnc(C)cc2C)n(Cc2ccc(OC(F)F)cc2)c1=O` [Cpd 198]: the inhibition at 10 µM came out at 64% and the IC50 amounted to 1040 nM.
